# Assay results: article PMC9535023, “Inhibition of phospholipase D1 induces immunogenic cell death and potentiates cancer immunotherapy in colorectal cancer” (Experimental & Molecular Medicine, 2022)
# Assays:
# HCT116 cells = assay: miR-4496 promoter and β-catenin 3′-UTR luciferase reporters; format: cell-based
# HEK293 cells = assay: TCF transactivation in HEK293 cells; format: cell-based; conditions: Wnt3a 150 ng/mL
# DLD1 cells [1] = assay: Apoptosis assay (annexin V flow cytometry), DLD1; format: cell-based
# Method: For cell cycle analysis, the cells were treated with Α3373 or 5-FU. The cells were labeled with 10 μΜ bromodeoxyuridine (BrdU) for 2 h. Subsequently, the cells were stained with 7-aminoactinomycin D (7-AAD, Invitrogen) and a fluorescein isothiocyanate (FITC)-conjugated anti-BrdU antibody (Invitrogen). Apoptotic cells were detected using an Annexin V-FITC Apoptosis Detection Kit (BD Biosciences). The cells were analyzed using BD FACSAria III (BD Biosciences), and data analysis was performed using FlowJo v10.0 (BD Biosciences).
# MC38 cells = assay: MC38 syngeneic tumor model; format: in vivo, mouse
# Method: manner. The incision was extended to 2–3 cm, and the cecum was exposed. 2 × 10^5 MC38-GFP-Luciferas e cells were suspended in 50 µL PBS and injected into the cecum. Seven days after cell injection, 10 mg/kg A3373 was orally administered to the mice daily for 4 weeks.
# A colon can cer syngenei c model was established using 6- weeks-old C57B L/6 male mice. 2 × 10^5 MC38 cells were suspended in 50µ l PBS and subcutaneously injected into the flanks of the mice. After 7 days of cell injection, mice were randomized into four groups and all groups were treated as follows for 2 weeks: vehicle grou p, mice were IP administered vehicle every day; A3373 group, mice were IP administrated with 10 mg/kg A3373 every day; α PD-L1 antibody group, mice were IP administrated with 5 mg/kg anti-mouse PD-L1 (BioXcell) eve ry two days; A3373 + αPD-L1 antibody group, mice received A3373 (10 mg/kg) daily with anti - mouse PD-L1 (5 mg/kg) every 2 days. Tumor volume was measured in MC38 cells subcutaneous injected mice every 2 days after 7 days of cell injection. External tumor measurements were made using precision calipers, and tumor volume (TV) was calcul ated according to the following formula: TV = (W × L2)/2 (W = width and L = l ength).
# . All animal procedu res were performed in accordance with the institutional guidelines for animal research and were approved by the Institutional Animal Care and Use Committee of Yonsei University (IACUC- […]
# In a colon cancer orthotropic model, tumor-infiltrating lymphocytes (TILs) were isolated from the tumor tissue 30 days after cell injection. […]
# After 20 minutes of incubation, 0.1 M EDTA was added to prevent clumping. Cells were filtered through a 40 µm nylon mesh, single-cell suspensions were counted and used for the experiments. […] Isolated tumor cells were cultured for one passage to change the immunocompromised phenotype and assessed using flow cytometry. […]
# DLD1 cells [2] = assay: Cell viability (MTT); format: cell-based
# Method: Cell viability was measured by MTT (3-(4,5-dimethylthiazol2-yl)-2,5-diphenyltetrazolium bromide, Sigma-Aldrich). Cells (5 × 10^3 cells/well) were seeded in a 96-well plate. […] After treatment, the cells were incubated with 0.5 mg/mL MTT in the media for 2 h and lysed with DMSO. Absorbance was measured at 570 nm using a VersaMax ELISA microplate reader (Molecular Devices).
compound,measurement,setting,value
O=C(Nc1cc(C(F)(F)F)cc(C(F)(F)F)c1)c1cc2cc(F)ccc2[nH]1 [Compound A3373],luciferase activity of the β-catenin 3′-UTR reporter,HCT116 cells,significantly suppressed the luciferase activity
same,promoter activity of miR-4496,HCT116 cells,increased the promoter activity of miR-4496
same,Wnt3a- and β-catenin-induced TCF transactivation,HEK293 cells,significantly decreased Wnt3a- and β-catenin-induced TCF transactivation
same,"apoptosis of CRC cells, in words",DLD1 cells [1],significantly promoted the apoptosis of CRC cells alone
same,tumor formation,MC38 cells; A3373 10 mg/kg and/or αPD-L1,significantly decreased tumor formation
same,"CD8+ T-cell-mediated killing of MC38-GFP-Luc cells, luciferase activity","MC38 cells; CD8+ T cells from treated tumor-bearing mice, increasing E/T ratio",significant reduction in luciferase activity
same,percentage of immune cells (CD45+ cells) in total cells,"MC38 cells; tumors at maximum volume, flow cytometry, vehicle ~20%",~50%
same,"potency in suppressing viability, comparison",DLD1 cells [2]; DLD1 cells,higher potency in suppressing viability than that of VU0155069
same,"viability of DLD1 cells, in words",DLD1 cells [2]; dose- and time-dependent,significantly inhibited the viability
